The values that follow come from publication PMC6270839, “Synthesis and Biological Evaluation of Novel 10-Substituted-7-ethyl-10-hydroxycamptothecin (SN-38) Prodrugs” (Molecules, 2014).

Series [1] deals with SGC-7901 human gastric adenocarcinoma cancer cell line. The experiment in a line: MTT in vitro antitumor (antiproliferative) assay, SGC-7901. The series is classed as cell-based. The following applies: Homo sapiens, SGC-7901; MTT, 72 h incubation; read-out: IC50 SGC-7901. As to the method:
(§1) The in vitro antitumor activities were evaluated on human cancer cell lines SGC-7901 and HeLa by the MTT assay, using irinotecan as the reference compound.
(§2) The in vitro antitumor activity was evaluated on two human cancer cell lines with the MTT method. SGC-7901 is a human gastric adenocarcinoma cancer cell line and HeLa is a human cervical carcinoma cell line. Cells were provided by the Jilin Province Tumor Institute. Cells were maintained in IMDM medium supplemented with 10% fetal calf serum, 2 mM glutamine, 100 U/mL penicillin, and 100 μg/mL streptomycin, at 37 °C in a humidified atmosphere containing 5% CO2. The human cancer lines SGC-7901 and HELA at a concentration of […] were incubated in a 96-well microtiter plate (100 μL in every well) for 24 h (37 °C, 5%CO2). Then the cells were incubated continuously for 72 h following various concentrations of test drugs were added. The concentrations are 50 μM, 10 μM, 2 μM, 0.4 μM, 0.08 μM, 0.016 μM, 0.0032 μM, respectively. After the 100 μL 0.05% MTT solution was added to each well, the plate was incubated for a further 4 h before removal of medium, the media removed. Formazan crystals were dissolved with 100 μL DMSO, then the absorbance was detected at 490 nm.

The test system of series [2] is HeLa human cervical carcinoma cell line. The experiment in a line: MTT in vitro antitumor (antiproliferative) assay, HeLa. The series is classed as cell-based. The following applies: MTT, 72 h incubation, read-out: IC50 HeLa. As for the experimental part: as §1, §2
For a further series, the target named is AChE from electric eel (Electrophorus electricus, UniProt O42275). The experiment in a line: AChE inhibition assay (modified Ellman method). As to conditions: electric eel AChE, phosphate buffer pH 7.3, 37 °C; read-out: AChE IC50. The series is classed as biochemical. An excerpt:
Irinotecan has been reported to be a potent inhibiter of AChE, and inhibition of this enzyme causes acute cholinergic diarrhea. Unlike irinotecan, the compounds we assayed were only weak inhibitors of AChE. […] One possible explanation is that the active site of AChE is present at the bottom of a gorge that is lined with hydrophobic amino acid residues. The terminal dipiperidino moiety in CPT-11 that interacts with amino acid residues within AChE plays a major role in enzyme inhibition, which has been confirmed by X-ray crystallographic studies.
The AChE inhibition by all compounds was studied according to a modification of the method of Ellman et al.. The activity was assayed with AChE from electric eel in the presence or absence of the test compounds in phosphate buffer (pH7.3). After the incubation at 37 °C for 1 min, 0.38 mM 5,5-dithiobisnitrobenzoic acid and 0.56 mM ATCh were added to the buffer. The changes in absorbance were read at 412 nm, per 15 s intervals for 3 min by a spectrophotometer (UV-2500, Shimadzu Corp., Kyoto, Japan).
In general terms: Ellman's reagent forms a yellow product with free thiols.

The test system of series [3] is human colon adenocarcinoma SW1116 xenografts. The experiment in a line: Tumor growth inhibition in human colon adenocarcinoma SW1116 xenografts in nude mice. The series is classed as in vivo. As to conditions: 60 mg/kg; for Body Weight Change: once per day for 6 days, nude mice. As to the method:
The antitumor activity of 5e, compared with CPT-11 and SN-38, was investigated in human colon adenocarcinoma SW1116 xenografts in nude mice. The model animals were divided into four experimental groups, eight animals per group. Tested compouds were each administered by injection in the tumor section once per day for contiguous 6 days. The injection doses of test compound 5e, CPT-11, and SN-38 were 60 mg/kg, respectively. Using the vehicle group as the control, we tested the inhibitory activities of these compounds for 6 days and measured the changes in body weight and tumor size every 2 days. […] No toxic death occurred after drug treatment, and the body weight losses induced by 5e, CPT-11, and SN-38 at the given dose were similar.
(In xenograft studies the graft and the host belong to different species.)

On the set-up of series [4]: method as in PMID 11716702, PMID 15217940, PMID 19495753. The following applies: cited from earlier work.

AChE from electric eel, sequence (O42275 24-633): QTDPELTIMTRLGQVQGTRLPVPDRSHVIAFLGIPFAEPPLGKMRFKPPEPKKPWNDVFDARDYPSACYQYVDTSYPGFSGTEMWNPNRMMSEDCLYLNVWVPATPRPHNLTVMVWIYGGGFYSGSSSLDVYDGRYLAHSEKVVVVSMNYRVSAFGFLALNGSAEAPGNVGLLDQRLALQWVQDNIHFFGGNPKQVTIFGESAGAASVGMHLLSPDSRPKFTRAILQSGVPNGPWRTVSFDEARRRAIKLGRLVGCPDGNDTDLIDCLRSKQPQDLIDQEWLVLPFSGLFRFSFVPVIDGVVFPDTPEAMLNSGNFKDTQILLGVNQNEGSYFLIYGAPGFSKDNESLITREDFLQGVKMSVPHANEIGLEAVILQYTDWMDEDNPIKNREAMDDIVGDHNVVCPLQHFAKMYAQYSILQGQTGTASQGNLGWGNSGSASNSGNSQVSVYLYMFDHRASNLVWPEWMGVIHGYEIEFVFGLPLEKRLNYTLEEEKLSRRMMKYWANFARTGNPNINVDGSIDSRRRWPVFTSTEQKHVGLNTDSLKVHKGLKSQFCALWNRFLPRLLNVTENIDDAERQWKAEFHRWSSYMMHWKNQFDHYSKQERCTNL

Usually IC50 stands for the concentration that gives 50% inhibition. Turning to `CCc1c2c(nc3ccc(OC(=O)N4CCC(N5CCCCC5)CC4)cc13)-c1cc3c(c(=O)n1C2)COC(=O)[C@]3(O)CC` [Irinotecan, 7-ethyl-10-[4-(1-piperidino)-1-piperidino]-carbonyloxycamptothecin], the IC50 in series [1] came out at 7380 ± 1240 nM; in series [2], 1320 ± 130 nM; on AChE from electric eel, 200 nM. Moreover, in series [3] (injection in the tumor section once per day for 6 days, SW1116 xenograft nude mice, x ± SD), the “Tumor Weight” value turned out to be 0.17 ± 0.04 g/10g. Also, the “Inhibitory Rate” value in series [3] (injection in the tumor section once per day for 6 days, day 6, vs vehicle) came to 51%. In addition, the “Body Weight Change” value in series [3] was -3.10 g; in series [3] (listed as CPT-11), “similar”. Moreover, the “bioconversion efficiency from irinotecan to the active form SN-38” value in series [4] is 4%–5%.
